{"source": "patent US9661870B2", "about": "“Nanogel comprising water-soluble active ingredients” (DSM IP ASSETS B.V., priority 2012, dated 2017)", "key": {"[1]": {"assay": "Interaction of folic acid with soy protein, soy polysaccharide or complex nanogel at pH 7.4; free folic acid isolated by ultrafiltration", "format": "physicochemical", "details": "FA concentration in feed 0.5 mM", "method": "Considering the solubility of folic acid, the interaction at pH 7.4 was investigated. The individual protein solution, individual polysaccharide solution, and the protein/polysaccharide complex nanogel solution were adjusted to pH 7.4 first. Then the folic acid, dissolved in 10 mM phosphate buffer pH 7.4, was added and the mixture was incubated under stirring at room temperature overnight. The final protein concentration in the mixture was 4 mg/ml and polysaccharide concentration was 12 mg/ml. The free folic acid in the mixture was isolated by a high-flow ultrafiltration membrane (cutoff molecular weight 3 kDa, MicroconYM-3, Millipore), and was collected in the ultrafiltrate. Individual folic acid solution was also passed through the ultrafiltration membrane; 97% of the folic acid (Table 1) in the ultrafiltrate confirms the recovery of the folic acid. The individual protein, individual polysaccharide, and protein/polysaccharide complex nanogel solutions were also passed through the ultrafiltration membrane; their UV spectra of the ultrafiltrates (FIG. 1) show the absorbance at UV region, indicating small peptides in the ultrafiltrates. The FA concentration in the ultrafiltrate was calculated by deducting the 280 nm absorbance shown in FIG. 1 from the 280 nm absorbance of the ultrafiltrate."}, "[2]": {"assay": "UV degradation of folic acid (450 nm fluorescence before and after UV radiation)", "format": "physicochemical", "details": "for Degradation degree / IUV/I (ratio of FA fluorescence intensity after UV radiation to before): UV radiation pH 7.4", "excerpt": "As mentioned above, folic acid is sensitive to UV radiation. Because of intramolecular fluorescence quenching, folic acid has an extremely low fluorescence quantum yield, approximately 0.005. Pterins, which is formed after the cleavage of the C9-N10 bond in the folic acid molecule, has an increased fluorescence peak around 445 nm. The fluorescence quantum yield of 6-formyl pterin (FPT) is nearly 0.1 and that of pterin-6-carboxylic acid (PCA) is about 0.2. The fluorescence in the region of 445 nm increases with the formation of FPT as a result of the C9-N10 bond cleavage followed by the photo-induced conversion of FPT to PCA [M. K. Off et al., Journal of Photochemistry and Photobiology B: Biology 80 (2005) 47-55].\nThe UV degradation of folic acid was investigated in this study. The folic acid/protein/polysaccharide nanogel solution at pH 4.0 containing 0.25 or 0.5 mM folic acid was placed in a 7 ml glass bottle at a distance of 30 cm from a UV radiometer (500 w, peak A=365 nm) for 1 h. Individual folic acid dissolved in 10 mM pH 7.4 phosphate buffer with FA concentration of 0.25 or 0.5 mM was also investigated. The mixture of 5 mg/ml protein and 0.25 mM folic acid at pH 7.4, and the mixture of 15 mg/ml polysaccharide and 0.25 mM folic acid at pH 7.4 were also investigated. After the UV radiation, the folic acid/protein/polysaccharide nanogel solution was adjusted to pH 7.4 to release folic acid. The released folic acid in the solution was isolated by ultrafiltration and was analyzed as described below. After 10 and 20 times dilution for 0.25 and 0.5 mM folic acid, respectively, the 450 nm fluorescence intensity of the ultrafiltrate excited at 348 nm was measured.\nFor individual folic acid solution, after the UV radiation, the fluorescence intensity at 450 nm increases 89 and 85 times when folic acid concentration was 0.25 and 0.5 mM, respectively. The average 87 times of the increase for the fluorescence intensity after the UV radiation indicates the degradation of the folic acid inside the glass bottle. […] Compared with the individual folic acid, the degradation of folic acid reduces to 30% and 22% in the presence of polysaccharide and protein at pH 7.4, respectively. Folic acid/protein/polysaccharide nanogels can effectively protect the folic acid from the degradation at pH 4.0; only 12% of the loaded folic acid was degraded after the same UV radiation. […] The released and isolated folic acid from folic acid/protein/polysaccharide nanogels was radiated by UV light. After the same radiation, the folic acid fluorescence changed as the folic acid solution prepared at pH 7.4 directly.\nThe UV degradation of folic acid was investigated. Compared with the individual folic acid, the degradation of folic acid reduces to 19% in the presence of pea protein (Table 4). Folic acid/pea protein/polysaccharide nanogels can effectively protect the folic acid from the degradation at pH 4.0; only 13% of the loaded folic acid was degraded after the same UV radiation."}, "[3]": {"details": "cited from earlier work"}, "[4]": {"details": "Table 3, FA in feed 0.25 mM, UV 1 h"}, "[5]": {"details": "Table 3, FA in feed 0.5 mM, UV 1 h"}}}
{"smiles": "Nc1nc2ncc(CNc3ccc(C(=O)N[C@@H](CCC(=O)O)C(=O)O)cc3)nc2c(=O)[nH]1", "note": "[FA, folic acid]", "values": [{"measurement": "FA concentration in ultrafiltration", "setting": "[1]", "result": "0.485 ± 0.01", "unit": "mM"}, {"measurement": "Recovered FA in ultrafiltration", "setting": "[1]", "result": "97 ± 2", "unit": "%"}, {"measurement": "Recovered FA in ultrafiltration", "setting": "[1]; listed as folic acid", "result": 97, "unit": "%"}, {"measurement": "Degradation degree", "setting": "[2]; [4]", "result": 100, "unit": "%"}, {"measurement": "IUV/I (ratio of FA fluorescence intensity after UV radiation to before)", "setting": "[2]; [4]", "result": "89 ± 3"}, {"measurement": "IUV/I (ratio of FA fluorescence intensity after UV radiation to before)", "setting": "[2]; Table 3, FA in feed 0.25 mM, UV 1 h, listed as folic acid", "result": 89}, {"measurement": "Degradation degree", "setting": "[2]; [5]", "result": 100, "unit": "%"}, {"measurement": "IUV/I (ratio of FA fluorescence intensity after UV radiation to before)", "setting": "[2]; [5]", "result": "85 ± 2"}, {"measurement": "IUV/I (ratio of FA fluorescence intensity after UV radiation to before)", "setting": "[2]; Table 3, FA in feed 0.5 mM, UV 1 h, listed as folic acid", "result": 85}, {"measurement": "Degradation degree", "setting": "[2]; Table 4, FA in feed 0.25 mM", "result": 100, "unit": "%"}, {"measurement": "IUV/I (ratio of FA fluorescence intensity after UV radiation to before)", "setting": "[2]; Table 4, FA in feed 0.25 mM", "result": 91}, {"measurement": "average increase of the fluorescence intensity after the UV radiation", "setting": "[2]; average of 0.25 and 0.5 mM FA, pH 7.4", "result": 87, "unit": "times"}, {"measurement": "pKa", "setting": "[3]", "result": 4.7}]}
{"smiles": "O=C(O)CCCC[C@@H]1SC[C@@H]2NC(=O)N[C@@H]21", "note": "[biotin]", "values": [{"measurement": "pKa", "setting": "[3]", "result": 5.33}]}
